Measurements taken from patent publication US20080317692A1, “SUICIDE SUBSTRATES OF TYROSINASE AND USE THEREOF” (SUSTINEO BIOTECHNOLOGY CO., LTD, priority 2007, published 2008).

Columns and labels:
mushroom tyrosinase [1] = assay: Michaelis constant and maximal inactivation rate constant (method of Frere et al.); assay type: biochemical; details: for maximal inactivation rate constant ki-max / Ki: 0.03 μM tyrosinase, 2.5 mM L-DOPA as enzyme substrate, 50 to 300 μM suicide substrate (FIG. 6); for Ki: read-out: Michaelis constant KI of the inactivator
Text: The kinetics of inhibition of 7,8,4′-trihydroxyisoflavone and 5,7,8,4′-tetrahydroxyisoflavone were studied by using the method of Frere et al. and by measuring the oxidation of L-DOPA by mushroom tyrosinase in the presence of each of the two suicide substrates. During the assay, the concentration of the tested suicide substrate was much higher than that of the enzyme. When the progress of the inactivation of the enzyme was monitored at high suicide substrate/enzyme ratios, the concentration of suicide substrate ([I]) could be considered as constant throughout the process and a pseudo-first-order rate constant (ki) could be determined by using equation 1, where ki-max and KI represent the maximal inactivation velocity and the Michaelis constant of the inactivator.
In the presence of L-DOPA, the exponential decrease in the rate of oxidation of L-DOPA gave an apparent first-order rate constant kobs, which was computed from plots of ln(vt/v0) against t, where v0 and vt are the rates of increase of absorbance at 475 nm, at zero time and at time t, respectively. Assuming a competitive interaction between the added isoflavone and L-DOPA with the enzyme, the variation of kobs with the concentrations of the isoflavone ([I]) and L-DOPA ([S]) are given by equation 2
where KS and KI are the Michaelis constants for L-DOPA and the isoflavone, respectively. When equation 2 is written as
[I]/kobs=[I]/ki-max+KI/ki-max(1+[S]/KS) (3)
it is clear that a plot of [I]/kobs against [I] will be linear and that ki-max and KI can be found from the intercept and slope.
The Michaelis constants (KI) and maximal inactivation rate constants (ki-max) of suicide substrates were determined according to the method of Frere et al. (17). The inactivation reactions were carried out in the presence of 0.03 μM mushroom tyrosinase, 2.5 mM L-DOPA, and the suicide substrate at concentrations ranging from 50 to 300 μM, and the formation of dopachrome was monitored every second for 2 min with a spectrophotometer. […] Both KI and ki-max could thus be calculated, assuming a competition between the added isoflavone and L-DOPA.

mushroom tyrosinase [2] = assay: Enzymatic assay of tyrosinase (dopachrome formation at 475 nm, L-tyrosine or L-DOPA as substrate); assay type: biochemical; details: 0.05 mM isoflavone; for inhibition of monophenolase activity (dopachrome formation): 0.1 mM L-tyrosine as substrate (FIG. 2A); for lag time of monophenolase activity (L-tyrosine oxidation): 0.1 mM L-tyrosine, tyrosinase 100 units/mL (FIG. 2A)
Experimental: Ten microliters of the test sample (dissolved in DMSO) was mixed with 970 μL of 0.112 mM substrate (L-tyrosine or L-DOPA dissolved in 50 mM phosphate buffer, pH 6.8) at 25° C. for 2 min. […] The increase in absorbance at 475 nm due to the formation of dopachrome was monitored with a spectrophotometer.

mushroom tyrosinase [3] = assay: Partition ratio of suicide substrate (method of Waley, titration of tyrosinase); assay type: biochemical; details: for molecules required to inactivate 1 molecule of the enzyme (1+r): 0.1 μM tyrosinase, preincubated 30 min at 25° C., by extrapolation (FIG. 5); for partition ratio r: from the intercept on the abscissa in FIG. 5, which is 1+r
mushroom tyrosinase [4] = assay: Irreversible inhibitory activity assay (preincubation with tyrosinase, then L-DOPA); details: for enzyme inactivation after preincubation: 10 μM isoflavone, after 7 min of preincubation (FIG. 4); for type of inhibition: preincubation with 3 or 10 μM isoflavone
Experimental: In irreversible inhibitory activity assays, 20 units of tyrosinase was preincubated with a 3 or 10 μM concentration of the tested isoflavone (dissolved in DMSO) in 1 mL of 50 mM phosphate buffer (pH 6.8) at 25° C. At intervals of 0, 2, 7, 12, and 30 min, 200 μL of the preincubation mixture was mixed with 800 μL of 2.5 mM L-DOPA and incubated at 25° C. for 10 min. The formation of dopachrome in each reaction was monitored with a spectrophotometer. The relative activity was calculated by dividing the absorbance at 475 nm of each reaction by that of the control reaction, in which DMSO replaced the added isoflavone. For recovery experiments, the preincubation mixture incubated for 30 min was either dialyzed twice against 200 mL of phosphate buffer at 4° C. for 1 h with stirring or centrifuged through a Sephadex G-25 spin column (Sigma). Then, the residual tyrosinase activities of the mixtures from the two treatments were assayed as described above.
Then, 800 μL of 2.5 mM L-DOPA was added, and the reaction mixture was incubated at 25° C. for 10 min. For comparison, another set of experiments was conducted by mixing immediately the tested compound, tyrosinase, and L-DOPA in 1 mL of phosphate buffer and incubated at 25° C. for 10 min. The formation of dopachrome in each reaction was monitored with a spectrophotometer. The relative activity was calculated by dividing the absorbance at 475 nm of each reaction mixture by that of the control reaction, in which DMSO replaced the tested compound. All enzymatic reactions described above were carried out at least three times independently, and the average values are presented.

mushroom tyrosinase [5] = assay: HPLC analysis of the reaction of isoflavone with tyrosinase (substrate behaviour); assay type: biochemical; details: 100 μM isoflavone, tyrosinase 1000 units/mL, 50 mM phosphate buffer pH 6.8 (FIG. 3)

| Structure (SMILES) | Michaelis constant KS for L-DOPA (mushroom tyrosinase [1]; same experimental conditions) [mM] | inhibition of monophenolase activity (dopachrome formation) (mushroom tyrosinase [2]) | lag time of monophenolase activity (L-tyrosine oxidation) (mushroom tyrosinase [2]) | molecules required to inactivate 1 molecule of the enzyme (1+r) (mushroom tyrosinase [3]) [molecules] | partition ratio r (mushroom tyrosinase [3]) | enzyme inactivation after preincubation (mushroom tyrosinase [4]) | type of inhibition (mushroom tyrosinase [4]) | behaviour as substrate of tyrosinase (HPLC) (mushroom tyrosinase [5]) | maximal inactivation rate constant ki-max (mushroom tyrosinase [1]) [L·min] | Ki (mushroom tyrosinase [1]) [µM] |
| --- | --- | --- | --- | --- | --- | --- | --- | --- | --- | --- |
| N[C@@H](Cc1ccc(O)c(O)c1)C(=O)O [L-DOPA, 3,4-dihydroxyphenylalanine, reference compound] | 0.25 ± 0.01 | – | – | – | – | – | – | – | – | – |
| O=c1c(-c2ccc(O)cc2)coc2c(O)c(O)cc(O)c12 [5,7,8,4′-tetrahydroxyisoflavone] | – | slowed and stopped the formation of dopachrome | without the lag time | 36.5±3.8 | 35.5±3.8 | totally inactivated | irreversible inhibitors | acted as the substrates of mushroom tyrosinase | 1.01 ± 0.04 | 7.81 ± 0.05 |
| O=c1c(-c2ccc(O)cc2)coc2c(O)c(O)ccc12 [7,8,4′-trihydroxyisoflavone] | – | slowed and stopped the formation of dopachrome | without the lag time | 82.7±5.9 | 81.7±5.9 | totally inactivated | irreversible inhibitors | acted as the substrates of mushroom tyrosinase | 0.79 ± 0.08 | 18.7 ± 2.31 |
